# Laboratory results from PubChem BioAssay AID328 (DTP/NCI, 2004).
# Where “and” joins values, the source holds several entries; their conditions need not be identical. Identical values can stand only once. Inconclusive results and toxic doses are left out.
# Tested on: BDF1 mice, P388 leukemia ip, median survival T/C
# Assay: NCI In Vivo Anticancer Drug Screen. Data for tumor model P388 Leukemia (intraperitoneal) in B6D2F1 (BDF1) mice
# Conditions: endpoint: median survival time, higher = longer survival
# In short: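 Reported as T/C, where T is the survival measurement in dosed animals and C the same measurement in vehicle controls.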
# [1] = dose: 200.0 mg/kg/injection, schedule: Q04DX003 (ip), vehicle: saline with Tween-80
# [2] = dose: 6.25 mg/kg/injection, schedule: Q01DX009 (ip), vehicle: saline with Tween-80
structure (smiles),measurement,setting,value
CN1Cc2cc3cc(c2O)C[N+](C)(C)Cc2c(Cl)c(c(Cl)c(c2Cl)C[N+](C)(C)C3)C1,T/C,"dose: 6.25 mg/kg/injection, schedule: Q01DX009 (ip), vehicle: saline",118 % of control
same,T/C,"dose: 8.2 mg/kg/injection, schedule: Q01DX009 (ip), vehicle: saline",108 % of control
same,T/C,"dose: 12.5 mg/kg/injection, schedule: Q01DX009 (ip), vehicle: saline",108 % of control
same,T/C,"dose: 25.0 mg/kg/injection, schedule: Q01DX001 (ip), vehicle: saline",104 % of control
same,T/C,"dose: 25.0 mg/kg/injection, schedule: Q01DX009 (ip), vehicle: saline",109 % of control
same,T/C,"dose: 50.0 mg/kg/injection, schedule: Q01DX001 (ip), vehicle: saline",100 % of control
same,T/C,"dose: 118.0 mg/kg/injection, schedule: Q01DX009 (ip), vehicle: saline",112 % of control
CCOC(=O)NCCCCCCNC(=O)OCC,T/C,"dose: 50.0 mg/kg/injection, schedule: Q01DX009 (ip), vehicle: saline with Tween-80",95 % of control
same,T/C,"dose: 100.0 mg/kg/injection, schedule: Q01DX009 (ip), vehicle: saline with Tween-80",100 % of control
same,T/C,[1],90 % of control
CCC(C)Sc1nc(N)nc2c1ncn2C1OC(CO)C(O)C1O (stereo not drawn),T/C,"dose: 100.0 mg/kg/injection, schedule: Q04DX003 (ip), vehicle: saline with Tween-80",91 % of control and 109 % of control
same,T/C,[1],108 % of control and 118 % of control
C=C1C(=O)OC2C1C(OC(=O)/C(C)=C/C)CC(O)(CCl)C1C(OC(C)=O)C=C(C)C21O (stereo not drawn),T/C,"dose: 5.0 mg/kg/injection, schedule: Q01DX010 (ip), vehicle: carboxymethylcellulose (CMC)",100 % of control
same,T/C,"dose: 10.0 mg/kg/injection, schedule: Q01DX010 (ip), vehicle: carboxymethylcellulose (CMC)",100 % of control
same,T/C,"dose: 20.0 mg/kg/injection, schedule: Q01DX010 (ip), vehicle: carboxymethylcellulose (CMC)",100 % of control
same,T/C,"dose: 25.0 mg/kg/injection, schedule: Q01DX010 (ip), vehicle: saline",116 % of control
same,T/C,"dose: 50.0 mg/kg/injection, schedule: Q01DX010 (ip), vehicle: saline",100 % of control
same,T/C,"dose: 100.0 mg/kg/injection, schedule: Q01DX010 (ip), vehicle: saline",155 % of control
O=S(=O)(CI)OCCCl,T/C,"dose: 50.0 mg/kg/injection, schedule: Q01DX005 (ip), vehicle: Klucel (hydroxypropylcellulose) (HPC)",93 % of control
same,T/C,"dose: 100.0 mg/kg/injection, schedule: Q01DX005 (ip), vehicle: Klucel (hydroxypropylcellulose) (HPC)",110 % of control
c1ccc2c(c1)nnn1c3cnccc3nc21,T/C,[2],120 % of control
O=C(CC(O)(C(F)(F)F)C(F)(F)F)c1ccc([N+](=O)[O-])cc1,T/C,"dose: 100.0 mg/kg/injection, schedule: Q01DX009 (ip), vehicle: other",95 % of control
same,T/C,"dose: 100.0 mg/kg/injection, schedule: Q04DX003 (ip), vehicle: other",110 % of control
same,T/C,"dose: 200.0 mg/kg/injection, schedule: Q01DX009 (ip), vehicle: other",95 % of control
same,T/C,"dose: 200.0 mg/kg/injection, schedule: Q04DX003 (ip), vehicle: other",95 % of control
same,T/C,"dose: 400.0 mg/kg/injection, schedule: Q01DX009 (ip), vehicle: other",100 % of control
same,T/C,"dose: 400.0 mg/kg/injection, schedule: Q04DX003 (ip), vehicle: other",100 % of control
CC1(C)CC(=O)OC(=O)C1,T/C,"dose: 3.13 mg/kg/injection, schedule: Q01DX009 (ip), vehicle: saline with Tween-80",93 % of control
same,T/C,[2],100 % of control
same,T/C,"dose: 12.5 mg/kg/injection, schedule: Q01DX009 (ip), vehicle: saline with Tween-80",95 % of control
same,T/C,"dose: 25.0 mg/kg/injection, schedule: Q01DX009 (ip), vehicle: saline with Tween-80",105 % of control
COc1ccc(C(SCC(N)C(=O)O)(c2ccccc2)c2ccccc2)cc1 (stereo not drawn),T/C,"dose: 1.3 mg/kg/injection, schedule: Q01DX009 (ip), vehicle: Klucel (hydroxypropylcellulose) (HPC)",117 % of control
same,T/C,"dose: 2.0 mg/kg/injection, schedule: Q01DX009 (ip), vehicle: Klucel (hydroxypropylcellulose) (HPC)",113 % of control
same,T/C,"dose: 4.12 mg/kg/injection, schedule: Q01DX009 (ip), vehicle: Klucel (hydroxypropylcellulose) (HPC)",155 % of control
same,T/C,"dose: 6.25 mg/kg/injection, schedule: Q01DX009 (ip), vehicle: Klucel (hydroxypropylcellulose) (HPC)",160 % of control and 168 % of control and 175 % of control
same,T/C,"dose: 12.5 mg/kg/injection, schedule: Q01DX009 (ip), vehicle: Klucel (hydroxypropylcellulose) (HPC)",200 % of control
same,T/C,"dose: 25.0 mg/kg/injection, schedule: Q01DX009 (ip), vehicle: Klucel (hydroxypropylcellulose) (HPC)",250 % of control
same,T/C,"dose: 25.0 mg/kg/injection, schedule: Q04DX003 (ip), vehicle: Klucel (hydroxypropylcellulose) (HPC)",155 % of control
same,T/C,"dose: 33.0 mg/kg/injection, schedule: Q04DX003 (ip), vehicle: Klucel (hydroxypropylcellulose) (HPC)",154 % of control
same,T/C,"dose: 50.0 mg/kg/injection, schedule: Q01DX009 (ip), vehicle: Klucel (hydroxypropylcellulose) (HPC)",105 % of control
same,T/C,"dose: 50.0 mg/kg/injection, schedule: Q04DX003 (ip), vehicle: Klucel (hydroxypropylcellulose) (HPC)",170 % of control and 185 % of control
same,T/C,"dose: 66.0 mg/kg/injection, schedule: Q04DX003 (ip), vehicle: Klucel (hydroxypropylcellulose) (HPC)",272 % of control
same,T/C,"dose: 100.0 mg/kg/injection, schedule: Q04DX003 (ip), vehicle: Klucel (hydroxypropylcellulose) (HPC)",240 % of control and 205 % of control
